How the values were obtained:
[1] = system: V. parahaemolyticus lysogenized with phage VP882; experiment: Growth/lysis assay (OD600), VP882 lysogen; assay type: cell-based; settings: for host cell lysis (OD600): wild-type VP882 lysogen, expression induced (ara or aTc) or MMC added
Method: (§1) Growth, Lysis, and Reporter Assays. Typically, overnight cultures were back diluted 1:1000 into fresh medium with appropriate antibiotics and strains were grown to OD600 0.5-0.6. Cultures were back diluted 1:20, and grown to OD600 0.1, before being dispensed (200 μL) into 96 well plates (Corning Costar 3904). MMC, ara, or aTc was added as specified. […] Plates were shaken at 37° C. and a BioTek Synergy Neo2 Multi-Mode reader was used to measure OD600, OD600 and bioluminescence, or OD600 and fluorescence. […]. In the case of fluorescence assays, M9 supplemented with 0.4% casamino acids (BD-Difco) was used and readings were made by excitation at 588 nm and emission at 633 nm. The glycerol stocks were prepared from three independent colonies of each strain at a single OD600. Care was taken to ensure that the OD600 between these strains was identical prior to storage. Parallel cultures of the same strains were used for viral preparations.

[2] = system: V. cholerae carrying the VP882 prophage; experiment: Growth/lysis assay (OD600), V. cholerae carrying VP882; assay type: cell-based
Method: as §1

[3] = system: E. coli, V. cholerae, and V. parahaemolyticus; experiment: Generalized DPO-based phage kill switch growth/lysis assay (FIG. 4); assay type: cell-based; settings: arabinose plus DPO (50 μM synthetic DPO per FIG. 4 legend)
Method: FIG. 4 is a graph showing the growth of E. coli, V. cholerae, and V. parahaemolyticus strains lysogenized with the generalized DPO-based phage kill switch in minimal medium lacking (black bars) or containing (white bars) 50 μM synthetic DPO to induce lysis, where all media contained arabinose.
as §1

[4] = system: phage VP882 vqmAPhage::Tn5 in V. cholerae; experiment: Viral load by quantitative PCR of viral preparations; assay type: cell-based
Method: qPCR and Viral Preparations. Viral preparations consisted of purified non-chromosomal DNA (ZR BAC kit, Zymo Research) prepared from 2 mL of cells. Following addition of the indicated compounds or water control, the cultures were returned to growth for 3 h prior to harvesting. This alteration in procedure was necessary to enable growth of sufficient cells for use with the viral preparation kit. 0.5 ng of purified non-chromosomal DNA was used for each qPCR reaction. qPCR reactions were performed as described above for qRT-PCR reactions. Data were analyzed by a comparative CT method in which the VP882 phage-specific primer set (JSO-1399×1400) was normalized to the non-phage plasmid-specific primer set (JSO-1401×1402). The reference sample for each comparison was the isogenic strain (Δtdh or WT) that was not induced.

HIS-HALO-Gp59 = experiment: Western blot to assess HIS-HALO-Gp59 cleavage; assay type: cell-based, E. coli
phage VP882 cI = experiment: Confocal microscopy of HALO-cI localization (VP882 cI); assay type: cell-based; settings: single-cell level in E. coli
Method: (§2) Confocal Microscopy. Overnight cultures, started from single colonies of E. coli (T7Express) carrying HALO and/or SNAP fusions (see Table 2) were back-diluted 1:1000, and grown at 37° C. to OD600˜0.2. Either MMC, aTc, or ethanol in water was added. The so-treated samples were returned to shaking at 37° C. for an additional 60 min prior to live-cell staining and imaging. Live-cell staining was performed using a protocol adapted from (Ke et al., 2016). Briefly, HALO-TMR was added to each sample at 10 μM. The samples were incubated in the dark for 15-20 min at 37° C. The cells were pelleted at 13,000 g×1 min, washed twice with M9 medium, and resuspended in 50-150 μL of fresh M9 medium. 5-10 μL of each sample was spotted onto a glass coverslip and overlaid with a small amount of M9-agar. The samples were imaged on a Leica SP8 Confocal microscope. HALO-TMR was excited with 561 nm light and detected within a range of 579-622 nm. For SNAP-Qtip co-localization experiments, the SNAP-specific dye JF503 (Grimm et al., 2017) was added at 10 μM at the same time as the HALO-TMR reagent was added. SNAP was visualized by excitation at 504 nm and detection within 516-540 nm. All images were acquired under the same conditions (laser power and gain) in LASX (Leica Microsystems). Images were imported into Fiji for processing, which consisted solely of adjusting brightness and contrast (min-max).

[5] = system: V. parahaemolyticus harboring phage VP882; experiment: Phage (virion) DNA isolation from culture fluids; assay type: cell-based
Method: Phage DNA Isolation. Phage DNA was purified from phage particles present in the supernatants of lysed cells (virion) and from host cell pellets lysogenized with VP882 (prophage). Prophage DNA was purified using the FosmidMAX kit (Lucigen) according to the manufacturer's protocol for 1.5 mL cultures. Virion DNA was isolated using a Phage DNA isolation kit (Norgen Biotek) including the DNase I and Proteinase K treatment steps indicated in the manufacturer's protocol.

Pq-lux [6] = experiment: Pq-lux reporter assay in V. parahaemolyticus; assay type: cell-based; settings: VP882 lysogen
Method: as §1

Pgp69-lux = Pgp69-lux reporter assay in V. parahaemolyticus lysogen; assay type: cell-based; settings: VP882 lysogen
Method: as §1

Pq-lux [7] = experiment: Pq-lux reporter assay in recombinant E. coli; assay type: cell-based
Method: as §1

lambda HALO-cI = experiment: Confocal microscopy of HALO-cI localization (lambda cI); assay type: cell-based; settings: co-expression in E. coli
Method: as §2

HALO-cI from MJ1 = experiment: Confocal microscopy of HALO-cI localization (MJ1 cI); assay type: cell-based, phage MJ1; settings: co-expression in E. coli
Method: as §2

[8] = system: HALO-cI repressor from vibriophage VP58.5; experiment: Confocal microscopy of HALO-cI localization (VP58.5 cI); assay type: cell-based; settings: co-expression in E. coli
Method: as §2

cI = experiment: Co-immunoprecipitation of HALO-cI with HIS-Gp55; assay type: binding, phage VP882; settings: combined E. coli lysates
[9] = synthetic DPO supplied to WT and Δtdh strains, vqmAPhage induced
[10] = WT and Δtdh strains, qtip from inducible promoter or MMC

Molecule: Cc1cnc(O)c(C)n1 [DPO, 3,5-dimethylpyrazine-2-ol]
- host cell lysis ([1]; minimal medium lacking threonine, DPO added in the absence of induction of VqmAPhage): no lysis
- host cell lysis ([1]; minimal medium lacking threonine, vqmAPhage induced with 0.2% ara, DPO 10 μM): maximal host cell lysis
- additional lysis with exogenous DPO versus endogenously-produced DPO only ([2]; WT strain): 25%
- lysis [2, 9]: lysis occurred
- lysis [3]: maximal lysis
- additional increase in viral load with exogenous DPO versus endogenous DPO only ([4]; WT strain): 35%
- viral load [4, 9]: increased in both strains to similar extents

Molecule: CO[C@@]12[C@H](COC(N)=O)C3=C(C(=O)C(C)=C(N)C3=O)N1C[C@@H]1N[C@@H]12 [MMC, mitomycin C]
- HIS-HALO-Gp59 bands on Western blot (HIS-HALO-Gp59; recA+ E. coli, MMC-treated): lower-molecular-weight bands, presumably cleavage products
- HIS-HALO-Gp59 protein on Western blot (HIS-HALO-Gp59; ΔrecA E. coli, MMC treatment): unaffected
- cI localization (VP882 HALO-cI) (phage VP882 cI): remained diffuse
- release of VP882 phage DNA into culture fluids [5]: VP882 phage DNA could be purified
- host cell lysis ([1]; VP882 phage harboring gp62::Tn5): do not
- host cell lysis ([1]; VP882 phage with a Tn5 in vqmAPhage): lyse
- light production from Pq-lux (Pq-lux [6]): rapidly increased
- light production from Pgp69-lux (Pgp69-lux): rapidly increased
- offset between activation of Pq-lux and activation of Pgp69-lux (Pgp69-lux): 10 min
- Pq-lux light production (Pq-lux [7]; recA+ E. coli carrying Pq-lux and HIS-HALO-Gp59): significant increase in light production
- Pq-lux light production (Pq-lux [7]; ΔrecA E. coli carrying Pq-lux and HIS-HALO-Gp59): no effect

B1: ORF584 (protein, listed as Vibrio cholerae)
chain: MDLRVSNAKDLLDKFEEKAVQMESISQLLANAPEDLTLATVQGSLSALASIARDAGEAADRLRTISSAEG
- cI aggregation (lambda HALO-cI) (lambda HALO-cI): not
- cI aggregation (MJ1 HALO-cI) (HALO-cI from MJ1): caused aggregation
- cI localization (VP882 HALO-cI) (phage VP882 cI): stripe of cI localization along the length of the cell
- cI localization (VP882 HALO-cI) (phage VP882 cI; listed as orf584): caused aggregation
- host cell lysis (OD600) [1]: lysis
- phage VP882 Pq expression (Pq-lux [7]; orf584 induced, host per Table 2): de-repression

B2: Qtip (protein, listed as Vibrio cholerae)
chain: MCDFCSEHIDSLDALQSSLEKGTAIIELLDTALSAGIEVSPRVVSCALSAAHQHLQVSEKINRSLQIGCGSKEVLRLVD
- cI aggregation (lambda HALO-cI) (lambda HALO-cI): No aggregation occurred
- cI aggregation (VP58.5 HALO-cI) [8]: Aggregation also occurred
- cI aggregation (MJ1 HALO-cI) (HALO-cI from MJ1): resulted in foci
- cI localization (VP882 HALO-cI) (phage VP882 cI): foci located primarily at the cell poles
- host cell lysis (OD600) [1]: host cell lysis comparable to when MMC was added or vqmAPhage was induced
- lysis [2, 10]: Near-complete lysis
- binding of cI during purification of HIS-Gp55 (cI): cI binds to Gp55
- Pq-lux activity (Pq-lux [7]; combined reporter plasmid (inducible vqmAPhage, Pq-lux, cI), pTetA-gp55 induced): sufficient to generate Pq-lux activity
- viral production [4, 10]: increased viral production
